Assay results published in PMC4854315, “Discovery of a novel allosteric inhibitor-binding site in ERK5: comparison with the canonical kinase hinge ATP-binding site” (Acta Crystallographica. Section D, Structural Biology, 2016).

Columns and labels:
Experiment in all cases: Z'-LYTE kinase panel
Format in all cases: biochemical
NTRK1 (TRKA) = target: T1, NTRK1 (TRKA) (Homo sapiens, UniProt P04629)
T1 construct: purchased ThermoFisher (SelectScreen, Z'-LYTE)
Description: (§1) Compounds 2, 3 and 5 were tested for activity against the 225 kinases in the ThermoFisher standard kinase panel. The standard Z′-LYTE assay protocol (ThermoFisher) was used to measure the percentage inhibition at 10 µM compound concentration (details are provided in the supporting information).

NEK7 = target: T2, NEK7 (Homo sapiens, UniProt Q8TDX7)
T2 construct: purchased ThermoFisher (SelectScreen, Z'-LYTE)
T2 sequence (Q8TDX7 whole entry): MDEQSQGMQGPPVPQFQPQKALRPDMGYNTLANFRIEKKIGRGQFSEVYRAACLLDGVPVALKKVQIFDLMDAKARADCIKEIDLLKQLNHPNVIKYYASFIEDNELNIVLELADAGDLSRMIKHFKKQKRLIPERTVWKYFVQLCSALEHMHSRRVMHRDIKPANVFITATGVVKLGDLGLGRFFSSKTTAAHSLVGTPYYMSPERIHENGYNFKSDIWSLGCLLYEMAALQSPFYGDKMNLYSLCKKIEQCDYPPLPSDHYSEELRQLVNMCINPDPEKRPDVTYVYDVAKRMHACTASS
Description: as §1

PRKD2 (PKD2) = target: T3, PRKD2 (PKD2) (Homo sapiens, UniProt Q9BZL6)
T3 construct: purchased ThermoFisher (SelectScreen, Z'-LYTE)
T3 sequence (Q9BZL6 1-878): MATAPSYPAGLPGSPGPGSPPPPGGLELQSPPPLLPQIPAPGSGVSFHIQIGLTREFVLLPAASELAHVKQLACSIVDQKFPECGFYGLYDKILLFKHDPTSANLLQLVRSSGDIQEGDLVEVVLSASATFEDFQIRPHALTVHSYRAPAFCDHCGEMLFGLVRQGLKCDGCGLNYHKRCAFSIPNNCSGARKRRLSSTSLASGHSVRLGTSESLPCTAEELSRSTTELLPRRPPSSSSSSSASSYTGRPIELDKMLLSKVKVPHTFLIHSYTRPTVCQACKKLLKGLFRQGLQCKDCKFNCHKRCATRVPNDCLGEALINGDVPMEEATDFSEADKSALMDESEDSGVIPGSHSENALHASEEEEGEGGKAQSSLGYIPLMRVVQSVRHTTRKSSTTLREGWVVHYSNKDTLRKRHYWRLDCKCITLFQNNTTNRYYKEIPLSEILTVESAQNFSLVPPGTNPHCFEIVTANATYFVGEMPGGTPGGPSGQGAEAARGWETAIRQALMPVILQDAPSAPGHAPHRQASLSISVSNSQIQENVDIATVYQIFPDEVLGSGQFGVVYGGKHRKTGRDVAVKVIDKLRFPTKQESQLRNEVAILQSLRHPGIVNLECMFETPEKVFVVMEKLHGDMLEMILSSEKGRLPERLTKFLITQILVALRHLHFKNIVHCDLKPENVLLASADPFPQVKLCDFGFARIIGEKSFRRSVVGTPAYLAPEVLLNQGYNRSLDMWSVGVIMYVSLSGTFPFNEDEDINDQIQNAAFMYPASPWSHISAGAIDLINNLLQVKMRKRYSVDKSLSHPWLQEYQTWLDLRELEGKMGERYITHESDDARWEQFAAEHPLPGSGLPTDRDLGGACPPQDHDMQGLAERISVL
Description: as §1

CAMK2D (CaMKII delta) = target: T4, CAMK2D (CaMKII delta) (Homo sapiens, UniProt Q13557)
T4 construct: purchased ThermoFisher (SelectScreen, Z'-LYTE)
Description: as §1

PIM2 = target: T5, PIM2 (Homo sapiens, UniProt Q9P1W9)
T5 construct: purchased ThermoFisher (SelectScreen, Z'-LYTE)
T5 sequence (Q9P1W9 whole entry): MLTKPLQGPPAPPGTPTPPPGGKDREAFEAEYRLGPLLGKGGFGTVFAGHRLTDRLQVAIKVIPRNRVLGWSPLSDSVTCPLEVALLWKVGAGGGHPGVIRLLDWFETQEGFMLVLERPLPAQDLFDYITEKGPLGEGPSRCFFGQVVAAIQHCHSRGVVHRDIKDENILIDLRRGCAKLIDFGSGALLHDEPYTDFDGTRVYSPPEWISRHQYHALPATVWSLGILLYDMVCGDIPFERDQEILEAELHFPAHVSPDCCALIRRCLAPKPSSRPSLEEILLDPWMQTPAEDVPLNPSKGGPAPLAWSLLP
Description: as §1

MAP4K5 (KHS1) = target: T6, MAP4K5 (KHS1) (Homo sapiens, UniProt Q9Y4K4)
T6 construct: purchased ThermoFisher (SelectScreen, Z'-LYTE)
Description: as §1

MAP4K4 (HGK) = target: T7, MAP4K4 (HGK) (Homo sapiens, UniProt O95819)
T7 construct: purchased ThermoFisher (SelectScreen, Z'-LYTE)
T7 sequence (O95819 whole entry): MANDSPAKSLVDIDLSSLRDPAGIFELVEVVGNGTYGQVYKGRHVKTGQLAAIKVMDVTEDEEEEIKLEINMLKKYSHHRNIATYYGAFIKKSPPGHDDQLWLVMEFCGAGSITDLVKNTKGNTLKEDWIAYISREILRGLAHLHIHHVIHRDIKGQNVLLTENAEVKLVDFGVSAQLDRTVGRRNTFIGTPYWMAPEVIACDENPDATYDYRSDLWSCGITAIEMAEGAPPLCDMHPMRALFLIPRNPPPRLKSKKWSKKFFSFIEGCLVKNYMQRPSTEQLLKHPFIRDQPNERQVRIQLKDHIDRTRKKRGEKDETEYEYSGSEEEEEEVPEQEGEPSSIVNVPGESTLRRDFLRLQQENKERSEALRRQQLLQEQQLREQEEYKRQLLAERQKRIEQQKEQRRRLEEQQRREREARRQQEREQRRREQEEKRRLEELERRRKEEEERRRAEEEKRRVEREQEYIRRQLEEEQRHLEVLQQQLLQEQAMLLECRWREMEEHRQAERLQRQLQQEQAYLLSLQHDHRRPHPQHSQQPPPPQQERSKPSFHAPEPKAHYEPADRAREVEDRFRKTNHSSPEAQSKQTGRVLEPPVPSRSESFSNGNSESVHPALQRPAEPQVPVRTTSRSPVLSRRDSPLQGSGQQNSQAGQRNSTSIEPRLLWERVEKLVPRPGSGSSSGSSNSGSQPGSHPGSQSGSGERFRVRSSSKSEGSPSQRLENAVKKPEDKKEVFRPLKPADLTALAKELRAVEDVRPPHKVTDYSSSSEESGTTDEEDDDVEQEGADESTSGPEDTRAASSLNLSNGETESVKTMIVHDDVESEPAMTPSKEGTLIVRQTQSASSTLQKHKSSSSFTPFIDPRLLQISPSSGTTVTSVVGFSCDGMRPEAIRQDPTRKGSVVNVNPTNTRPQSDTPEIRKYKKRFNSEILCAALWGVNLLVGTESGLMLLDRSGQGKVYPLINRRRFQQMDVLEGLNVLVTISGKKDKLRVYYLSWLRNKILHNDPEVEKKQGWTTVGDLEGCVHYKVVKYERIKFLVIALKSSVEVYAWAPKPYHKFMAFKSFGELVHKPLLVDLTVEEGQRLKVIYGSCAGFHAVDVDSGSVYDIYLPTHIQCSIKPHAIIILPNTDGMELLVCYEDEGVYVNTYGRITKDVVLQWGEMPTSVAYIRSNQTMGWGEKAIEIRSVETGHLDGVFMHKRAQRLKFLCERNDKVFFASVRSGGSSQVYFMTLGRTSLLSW
Description: as §1

MARK3 = target: T8, MARK3 (Homo sapiens, UniProt P27448)
T8 construct: purchased ThermoFisher (SelectScreen, Z'-LYTE)
T8 sequence (P27448 whole entry): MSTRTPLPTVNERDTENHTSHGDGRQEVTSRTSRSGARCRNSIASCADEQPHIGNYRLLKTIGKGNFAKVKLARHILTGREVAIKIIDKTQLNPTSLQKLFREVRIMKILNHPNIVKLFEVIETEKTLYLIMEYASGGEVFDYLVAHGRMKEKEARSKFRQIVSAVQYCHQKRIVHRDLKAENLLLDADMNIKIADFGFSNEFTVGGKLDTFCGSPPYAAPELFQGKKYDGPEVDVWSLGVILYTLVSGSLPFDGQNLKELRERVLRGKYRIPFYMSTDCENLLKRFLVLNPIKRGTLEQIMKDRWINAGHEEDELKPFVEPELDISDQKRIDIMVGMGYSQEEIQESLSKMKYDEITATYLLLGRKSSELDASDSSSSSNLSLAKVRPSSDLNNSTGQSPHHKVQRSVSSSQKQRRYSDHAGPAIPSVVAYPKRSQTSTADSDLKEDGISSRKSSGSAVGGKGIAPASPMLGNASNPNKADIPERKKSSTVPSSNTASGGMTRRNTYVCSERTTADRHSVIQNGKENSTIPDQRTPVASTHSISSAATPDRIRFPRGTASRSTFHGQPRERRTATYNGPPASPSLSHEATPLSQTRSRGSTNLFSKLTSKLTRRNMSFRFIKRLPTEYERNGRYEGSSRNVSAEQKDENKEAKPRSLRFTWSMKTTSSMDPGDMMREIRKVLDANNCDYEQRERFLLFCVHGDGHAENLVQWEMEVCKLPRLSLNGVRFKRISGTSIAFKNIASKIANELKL
Description: as §1

SGKL (SGK3) = target: T9, SGKL (SGK3) (Homo sapiens, UniProt Q96BR1)
T9 construct: purchased ThermoFisher (SelectScreen, Z'-LYTE)
T9 sequence (Q96BR1 1-496): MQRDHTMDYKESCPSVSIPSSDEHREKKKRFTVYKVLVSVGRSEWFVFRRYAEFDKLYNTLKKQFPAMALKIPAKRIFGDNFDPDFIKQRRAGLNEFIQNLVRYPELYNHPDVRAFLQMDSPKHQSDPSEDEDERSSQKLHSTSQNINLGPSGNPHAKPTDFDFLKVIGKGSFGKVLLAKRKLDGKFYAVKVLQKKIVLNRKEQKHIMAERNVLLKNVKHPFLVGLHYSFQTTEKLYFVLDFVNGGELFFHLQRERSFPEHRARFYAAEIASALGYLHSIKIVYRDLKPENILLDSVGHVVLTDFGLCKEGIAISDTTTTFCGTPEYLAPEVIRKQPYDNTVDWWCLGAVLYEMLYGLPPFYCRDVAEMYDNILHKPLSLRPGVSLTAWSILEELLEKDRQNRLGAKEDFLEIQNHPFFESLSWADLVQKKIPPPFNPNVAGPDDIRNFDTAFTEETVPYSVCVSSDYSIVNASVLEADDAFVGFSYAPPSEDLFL
Description: as §1

EPHA2 = target: T10, EPHA2 (Homo sapiens, UniProt P29317)
T10 construct: purchased ThermoFisher (SelectScreen, Z'-LYTE)
Description: as §1

DYRK1A = target: T11, DYRK1A (Homo sapiens, UniProt Q13627)
T11 construct: purchased ThermoFisher (SelectScreen, Z'-LYTE)
Description: as §1

MET (cMet) = target: T12, MET (cMet) (Homo sapiens, UniProt P08581)
T12 construct: purchased ThermoFisher (SelectScreen, Z'-LYTE)
Description: as §1

PTK2 (FAK) = target: T13, PTK2 (FAK) (Homo sapiens, UniProt Q05397)
T13 construct: purchased ThermoFisher (SelectScreen, Z'-LYTE)
T13 sequence (Q05397 whole entry): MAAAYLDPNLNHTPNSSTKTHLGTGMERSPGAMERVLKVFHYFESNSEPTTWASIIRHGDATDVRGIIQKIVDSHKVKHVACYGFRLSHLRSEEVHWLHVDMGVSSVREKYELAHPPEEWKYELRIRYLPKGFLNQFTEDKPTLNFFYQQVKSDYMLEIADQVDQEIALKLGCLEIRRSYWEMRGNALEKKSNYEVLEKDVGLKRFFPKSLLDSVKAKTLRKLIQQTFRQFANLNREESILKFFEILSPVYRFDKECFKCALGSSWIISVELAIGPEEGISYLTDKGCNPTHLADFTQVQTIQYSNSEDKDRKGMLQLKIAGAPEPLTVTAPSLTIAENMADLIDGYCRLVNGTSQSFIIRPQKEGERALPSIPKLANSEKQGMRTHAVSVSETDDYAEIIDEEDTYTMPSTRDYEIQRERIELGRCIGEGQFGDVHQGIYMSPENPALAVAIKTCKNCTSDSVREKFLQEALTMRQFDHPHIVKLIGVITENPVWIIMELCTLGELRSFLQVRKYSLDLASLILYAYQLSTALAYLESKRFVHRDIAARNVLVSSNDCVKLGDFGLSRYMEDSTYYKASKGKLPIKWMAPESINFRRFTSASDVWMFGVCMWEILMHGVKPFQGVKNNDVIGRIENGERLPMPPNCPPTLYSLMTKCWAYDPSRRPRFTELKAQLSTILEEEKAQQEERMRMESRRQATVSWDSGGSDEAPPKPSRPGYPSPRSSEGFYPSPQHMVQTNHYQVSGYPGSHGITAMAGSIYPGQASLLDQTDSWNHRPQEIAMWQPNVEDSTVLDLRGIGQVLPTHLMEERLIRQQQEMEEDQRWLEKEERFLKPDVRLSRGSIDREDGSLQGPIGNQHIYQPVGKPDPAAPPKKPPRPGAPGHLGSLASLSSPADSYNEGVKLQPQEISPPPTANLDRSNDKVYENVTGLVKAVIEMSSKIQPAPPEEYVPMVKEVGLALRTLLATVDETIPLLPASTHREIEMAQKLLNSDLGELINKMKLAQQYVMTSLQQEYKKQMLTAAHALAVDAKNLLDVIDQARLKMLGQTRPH
Description: as §1

CSNK1A1 (CK1 alpha 1) = target: T14, CSNK1A1 (CK1 alpha 1) (Homo sapiens, UniProt P48729)
T14 construct: purchased ThermoFisher (SelectScreen, Z'-LYTE)
T14 sequence (P48729 whole entry): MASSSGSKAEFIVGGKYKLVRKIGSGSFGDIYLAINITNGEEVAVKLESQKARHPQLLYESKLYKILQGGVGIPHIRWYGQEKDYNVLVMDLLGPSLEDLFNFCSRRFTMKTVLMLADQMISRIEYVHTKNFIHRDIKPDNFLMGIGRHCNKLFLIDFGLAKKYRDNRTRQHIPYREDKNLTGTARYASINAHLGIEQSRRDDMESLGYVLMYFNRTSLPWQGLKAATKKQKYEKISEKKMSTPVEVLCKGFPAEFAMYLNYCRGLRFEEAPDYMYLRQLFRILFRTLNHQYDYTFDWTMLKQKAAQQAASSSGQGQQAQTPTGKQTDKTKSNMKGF
Description: as §1

PRKCB1 (PKC beta I) = target: T15, PRKCB1 (PKC beta I) (Homo sapiens, UniProt P05771)
T15 construct: purchased ThermoFisher (SelectScreen, Z'-LYTE)
Description: as §1

SYK = target: T16, SYK (Homo sapiens, UniProt P43405); details: 10 µM compound, ATP Km app
T16 construct: purchased ThermoFisher (SelectScreen, Z'-LYTE)
Description: as §1

ERBB2 (HER2) = target: T17, ERBB2 (HER2) (Homo sapiens, UniProt P04626)
T17 construct: purchased ThermoFisher (SelectScreen, Z'-LYTE)
Description: as §1

T1 sequence (P04629 33-796): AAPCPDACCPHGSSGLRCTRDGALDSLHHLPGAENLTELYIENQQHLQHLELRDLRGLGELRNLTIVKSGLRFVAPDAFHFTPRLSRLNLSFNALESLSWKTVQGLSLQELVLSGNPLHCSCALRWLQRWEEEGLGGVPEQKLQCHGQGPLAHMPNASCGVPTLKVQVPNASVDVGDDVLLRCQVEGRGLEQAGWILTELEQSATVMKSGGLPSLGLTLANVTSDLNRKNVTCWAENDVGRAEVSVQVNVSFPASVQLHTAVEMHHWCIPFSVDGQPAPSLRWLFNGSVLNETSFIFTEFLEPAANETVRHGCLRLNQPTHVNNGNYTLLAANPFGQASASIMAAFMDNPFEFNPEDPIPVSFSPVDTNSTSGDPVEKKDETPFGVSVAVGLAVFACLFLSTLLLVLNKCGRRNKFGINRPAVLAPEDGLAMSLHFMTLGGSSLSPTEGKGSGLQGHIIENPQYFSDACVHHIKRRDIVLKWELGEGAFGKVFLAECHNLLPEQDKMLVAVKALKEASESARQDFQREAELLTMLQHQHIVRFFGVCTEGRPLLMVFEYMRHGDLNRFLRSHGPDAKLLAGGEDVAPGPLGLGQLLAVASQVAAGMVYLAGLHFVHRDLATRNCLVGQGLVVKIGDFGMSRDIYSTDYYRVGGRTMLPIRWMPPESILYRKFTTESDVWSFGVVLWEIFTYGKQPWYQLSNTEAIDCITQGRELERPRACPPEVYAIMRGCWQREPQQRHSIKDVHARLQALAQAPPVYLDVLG

Molecule | inhibition at 10 µM (NTRK1 (TRKA)) [%] | inhibition at 10 µM (NEK7) [%] | inhibition at 10 µM (PRKD2 (PKD2)) [%] | inhibition at 10 µM (CAMK2D (CaMKII delta)) [%] | inhibition at 10 µM (PIM2) [%] | inhibition at 10 µM (MAP4K5 (KHS1)) [%] | inhibition at 10 µM (MAP4K4 (HGK)) [%] | inhibition at 10 µM (MARK3) [%] | inhibition at 10 µM (SGKL (SGK3)) [%] | inhibition at 10 µM (EPHA2) [%] | inhibition at 10 µM (DYRK1A) [%] | inhibition at 10 µM (MET (cMet)) [%] | inhibition at 10 µM (PTK2 (FAK)) [%] | inhibition at 10 µM (CSNK1A1 (CK1 alpha 1)) [%] | inhibition at 10 µM (PRKCB1 (PKC beta I)) [%] | inhibition at 10 µM (SYK) [%] | inhibition at 10 µM (ERBB2 (HER2)) [%] | also measured
Cc1ncc(-c2nc(Nc3ccc(C(=O)NCCN4CCCCC4)cc3)ncc2F)n1C(C)C [Compound 3] | 76 | 10 | 95 | 88 | 40 | 97 | 84 | 84 | 67 | 69 | 93 | 85 | 94 | 28 | 86 | 90 | -1.66 | –
Cc1cc(Nc2nc(N)nn2C(=O)NC(C)C)ccc1Cl [Compound 5] | 36 | -0.441 | 9 | -2.38 | -13 | 65 | -6 | 25 | -11 | -1.47 | 1.48 | 25 | 10 | 4 | 2.25 | > 80 | -29 | SYK % Inhibition (SYK; listed as SN1109056190, 10 µM): 85%
XMD8-92 [Compound 2, reference compound] | – | – | – | – | – | – | – | – | – | – | – | – | – | – | – | – | – | NTRK1 (TRKA) % Inhibition (NTRK1 (TRKA); 10 µM compound, ATP Km app): 43%; NEK7 % Inhibition (NEK7; 10 µM compound, ATP Km app): 11%; PRKD2 (PKD2) % Inhibition (PRKD2 (PKD2); 10 µM compound, ATP Km app): 21%; CAMK2D (CaMKII delta) % Inhibition (CAMK2D (CaMKII delta); 10 µM compound, ATP Km app): 63%; PIM2 % Inhibition (PIM2; 10 µM compound, ATP Km app): 22%; MAP4K5 (KHS1) % Inhibition (MAP4K5 (KHS1); 10 µM compound, ATP Km app): 85%; MAP4K4 (HGK) % Inhibition (MAP4K4 (HGK); 10 µM compound, ATP Km app): 84%; MARK3 % Inhibition (MARK3; 10 µM compound, ATP Km app): 28%; SGKL (SGK3) % Inhibition (SGKL (SGK3); 10 µM compound, ATP Km app): 96%; EPHA2 % Inhibition (EPHA2; 10 µM compound, ATP Km app): -9.52%; DYRK1A % Inhibition (DYRK1A; 10 µM compound, ATP Km app): 2%; MET (cMet) % Inhibition (MET (cMet); 10 µM compound, ATP Km app): 57%; PTK2 (FAK) % Inhibition (PTK2 (FAK); 10 µM compound, ATP Km app): 47%; CSNK1A1 (CK1 alpha 1) % Inhibition (CSNK1A1 (CK1 alpha 1); 10 µM compound, ATP Km app): 7%; PRKCB1 (PKC beta I) % Inhibition (PRKCB1 (PKC beta I); 10 µM compound, ATP Km app): 13%; SYK % Inhibition (SYK): 22%; ERBB2 (HER2) % Inhibition (ERBB2 (HER2); 10 µM compound, ATP Km app): -17%
